The results in this text go back to patent publication US20240158446A1, “CYCLIC COMPOUND HAVING SELECTIVE INHIBITORY ACTION ON KRAS OVER HRAS AND NRAS” (CHUGAI SEIYAKU KABUSHIKI KAISHA, priority 2021, published 2024).

SMILES strings stand for the structures.

The target in test [1] is GDP-bound NRAS wild-type protein (Homo sapiens, UniProt P01111). As to the kind of experiment: Binding to NRAS by surface plasmon resonance (SPR), Single Cycle Kinetics. The conditions noted are these: ratio of KD for GDP-bound NRAS wild-type protein to KD for KRAS, SPR. (In SPR one partner is held on a chip, and binding of the other changes the refractive index at the surface.)

For test [2], the target named is GDP-bound KRAS wild-type protein (Homo sapiens, UniProt P01116). The test can be described thus: Binding to KRAS by surface plasmon resonance (SPR), Single Cycle Kinetics. The note with it: SPR, Single Cycle Kinetics, GDP-bound KRAS wild-type protein; read-out: KRAS KD.
Test [3] has as its system human lung cancer strain NCI-H441. The test can be described thus: cells. The note with it: NCI-H441, 96 h, read-out: NCI-H441 IC50 (nM), NCI-H441 cell proliferation, 4 days, CellTiter-Glo.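 Note: cell proliferation inhibition after four days measured by CellTiter-Glo.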
For test [4], the target named is GDP-bound HRAS wild-type protein (Homo sapiens, UniProt P01112). As to the kind of experiment: Binding to HRAS by surface plasmon resonance (SPR), Single Cycle Kinetics. The note with it: ratio of KD for GDP-bound HRAS wild-type protein to KD for KRAS, SPR.
GDP-bound HRAS wild-type protein, sequence (P01112 whole entry): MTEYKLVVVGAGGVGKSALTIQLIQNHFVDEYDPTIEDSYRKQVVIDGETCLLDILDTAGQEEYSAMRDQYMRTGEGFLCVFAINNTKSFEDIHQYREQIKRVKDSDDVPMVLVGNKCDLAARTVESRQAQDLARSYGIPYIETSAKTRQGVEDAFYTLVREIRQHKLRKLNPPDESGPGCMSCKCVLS

GDP-bound KRAS wild-type protein, sequence (P01116 whole entry): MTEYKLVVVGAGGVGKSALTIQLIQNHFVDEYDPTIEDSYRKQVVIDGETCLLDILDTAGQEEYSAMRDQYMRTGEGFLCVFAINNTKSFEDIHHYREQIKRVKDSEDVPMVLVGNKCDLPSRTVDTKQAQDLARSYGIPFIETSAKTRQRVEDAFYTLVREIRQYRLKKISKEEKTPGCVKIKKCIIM
GDP-bound NRAS wild-type protein, sequence (P01111 whole entry): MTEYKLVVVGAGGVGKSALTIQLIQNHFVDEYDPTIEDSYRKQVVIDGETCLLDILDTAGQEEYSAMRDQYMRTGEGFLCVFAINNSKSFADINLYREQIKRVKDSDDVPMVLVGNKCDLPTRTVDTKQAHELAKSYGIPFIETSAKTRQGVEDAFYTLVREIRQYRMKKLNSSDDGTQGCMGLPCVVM

Take `CCC[C@H]1C(=O)N[C@@H]([C@@H](C)CC)C(=O)N(C)CC(=O)N(C)[C@H]2C/C=C\CCN(C2=O)[C@@H](Cc2ccc(C(F)(F)F)cc2)C(=O)N(C)CC(=O)N[C@@H](CCc2cc(F)c(C(F)(F)F)c(F)c2)C(=O)N(CC)CC(=O)NC2(CC(C)(C)C2)C(=O)N(C)[C@@H](C2CCCC2)C(=O)N(C)[C@H](C(=O)N(C)C)CC(=O)N1C` [PP1777]: in test [1], the “NRAS/KRAS (KD ratio)” value is “A (a compound having 10 or more and less than 20 is denoted as A)”. For the same molecule, in test [2], the Kd was found to be 0.36 nM. The IC50 in test [3] was 79.3 nM. Also, in test [4], the “HRAS/KRAS (KD ratio)” value was “B (a compound having 3 or more and less than 10 is denoted as B)”.
For `CCO[C@@H]1C[C@H]2C(=O)N(C)C3(CCC3)C(=O)N(C)[C@@H](C3CCCC3)C(=O)N(C)[C@H](C(=O)N(C)C)CC(=O)N(C)[C@@H](CC)C(=O)N[C@@H]([C@@H](C)CC)C(=O)N(C)CC(=O)N(C)[C@H]3C/C=C\CCN(C3=O)[C@@H](Cc3ccc(C(F)(F)F)cc3)C(=O)N(C)CC(=O)N[C@@H](CCc3cc(F)c(C(F)(F)F)c(F)c3)C(=O)N2C1` [PP1779], the “NRAS/KRAS (KD ratio)” value in test [1] is “A (a compound having 10 or more and less than 20 is denoted as A)”. Besides, the Kd in test [2] stood at 0.034 nM. In addition, in test [3], the IC50 came out at 5.4 nM. Besides, the “HRAS/KRAS (KD ratio)” value in test [4] was “B (a compound having 3 or more and less than 10 is denoted as B)”.
With `CC[C@H](C)[C@@H]1NC(=O)[C@H](CC)N(C)C(=O)C[C@@H](C(=O)N(C)C)N(C)C(=O)[C@H](C2CCCC2)N(C)C(=O)C2(CCC2)N(C)C(=O)[C@@H]2CCCN2C(=O)[C@H](CCc2cc(F)c(C(F)(F)F)c(F)c2)NC(=O)CN(C)C(=O)[C@H](Cc2ccc(C(F)(F)F)cc2)N2CC/C=C\C[C@@H](C2=O)N(C)C(=O)CN(C)C1=O` [PP1780], in test [1], the “NRAS/KRAS (KD ratio)” value is “A (a compound having 10 or more and less than 20 is denoted as A)”. The Kd in test [2] came to 0.065 nM. Further, the IC50 in test [3] is 8.2 nM. For the same molecule, the “HRAS/KRAS (KD ratio)” value in test [4] is “A (a compound having 10 or more and less than 20 is denoted as A)”.
Regarding `CCO[C@@H]1C[C@H]2C(=O)N(C)C3(CCC3)C(=O)N(C)[C@@H](C3CCCC3)C(=O)N(C)[C@H](C(=O)N(C)C)CC(=O)N(C)[C@@H](CC)C(=O)N[C@@H]([C@@H](C)CC)C(=O)N(C)CC(=O)N(C)[C@H]3C/C=C\CCN(C3=O)[C@@H](Cc3ccc(C)cc3)C(=O)N(C)CC(=O)N[C@@H](CCc3cc(F)c(C(F)(F)F)c(F)c3)C(=O)N2C1` [PP1781], the “NRAS/KRAS (KD ratio)” value in test [1] was “A (a compound having 10 or more and less than 20 is denoted as A)”. Further, in test [2], the Kd is 0.024 nM. In addition, the IC50 in test [3] is 2.1 nM. In addition, the “HRAS/KRAS (KD ratio)” value in test [4] was “B (a compound having 3 or more and less than 10 is denoted as B)”.
As to `CCO[C@@H]1C[C@H]2C(=O)N(C)C3(CCC3)C(=O)N(C)[C@@H](C3CCCC3)C(=O)N(C)[C@H](C(=O)N(C)C)CC(=O)N(C)[C@@H](C3CC3)C(=O)N[C@@H]([C@@H](C)CC)C(=O)N(C)CC(=O)N(C)[C@H]3C/C=C\CCN(C3=O)[C@@H](Cc3ccc(C)cc3)C(=O)N(C)CC(=O)N[C@@H](CCc3cc(F)c(C(F)(F)F)c(F)c3)C(=O)N2C1` [PP1783], in test [1], the “NRAS/KRAS (KD ratio)” value is “A (a compound having 10 or more and less than 20 is denoted as A)”. The Kd in test [2] was found to be 0.028 nM. In addition, the IC50 in test [3] was determined as 3.5 nM. The “HRAS/KRAS (KD ratio)” value in test [4] was “B (a compound having 3 or more and less than 10 is denoted as B)”.
Take `CC[C@H](C)[C@@H]1NC(=O)[C@H](C2CC2)N(C)C(=O)C[C@@H](C(=O)N(C)C)N(C)C(=O)[C@H](C2CCCC2)N(C)C(=O)C2(CCC2)N(C)C(=O)[C@@H]2CCCN2C(=O)[C@H](CCc2cc(F)c(C(F)(F)F)c(F)c2)NC(=O)CN(C)C(=O)[C@H](Cc2ccc(C)cc2)N2CC/C=C\C[C@@H](C2=O)N(C)C(=O)CN(C)C1=O` [PP1784]: the “NRAS/KRAS (KD ratio)” value in test [1] is “A (a compound having 10 or more and less than 20 is denoted as A)”. Further, the Kd in test [2] came out at 0.083 nM. Further, the IC50 in test [3] came to 7.8 nM. The “HRAS/KRAS (KD ratio)” value in test [4] is “B (a compound having 3 or more and less than 10 is denoted as B)”.
With `CCO[C@@H]1C[C@H]2C(=O)N(C)C3(CCC3)C(=O)N(C)[C@@H](C3CCCC3)C(=O)N(C)[C@H](C(=O)N(C)C)CC(=O)N(C)[C@@H](CC)C(=O)N[C@@H]([C@@H](C)CC)C(=O)N3CCC[C@H]3C(=O)N(C)[C@H]3C/C=C\CCN(C3=O)[C@@H](Cc3ccc(C)cc3)C(=O)N(C)CC(=O)N[C@@H](CCc3cc(F)c(C(F)(F)F)c(F)c3)C(=O)N2C1` [PP1785], the “NRAS/KRAS (KD ratio)” value in test [1] is “A (a compound having 10 or more and less than 20 is denoted as A)”. Besides, the Kd in test [2] turned out to be 0.051 nM. For the same molecule, in test [3], the IC50 was found to be 6.9 nM. In test [4], the “HRAS/KRAS (KD ratio)” value was “A (a compound having 10 or more and less than 20 is denoted as A)”.
Regarding `CC[C@H](C)[C@@H]1NC(=O)[C@H](CC)N(C)C(=O)C[C@@H](C(=O)N(C)C)N(C)C(=O)[C@H](C2CCCC2)N(C)C(=O)C2(CCC2)N(C)C(=O)[C@@H]2CCCN2C(=O)[C@H](CCc2cc(F)c(C(F)(F)F)c(F)c2)NC(=O)CN(C)C(=O)[C@H](Cc2ccc(C)cc2)N2CC/C=C\C[C@@H](C2=O)N(C)C(=O)[C@@H]2CCCN2C1=O` [PP1786], in test [1], the “NRAS/KRAS (KD ratio)” value is “A (a compound having 10 or more and less than 20 is denoted as A)”. The Kd in test [2] stood at 0.14 nM. Moreover, the IC50 in test [3] was 11.4 nM. Also, the “HRAS/KRAS (KD ratio)” value in test [4] is “B (a compound having 3 or more and less than 10 is denoted as B)”.
For the molecule `CC[C@H](C)[C@@H]1NC(=O)[C@H](CC)N(C)C(=O)C[C@@H](C(=O)N(C)C)N(C)C(=O)[C@H](C2CCCC2)N(C)C(=O)C2(CCC2)N(C)C(=O)[C@@H]2C[C@@H](C)CN2C(=O)[C@H](CCc2cc(F)c(C(F)(F)F)c(F)c2)NC(=O)CN(C)C(=O)[C@H](Cc2ccc(C)cc2)N2CC/C=C\C[C@@H](C2=O)N(C)C(=O)[C@@H]2CCCN2C1=O` [PP1789], in test [1], the “NRAS/KRAS (KD ratio)” value is “A (a compound having 10 or more and less than 20 is denoted as A)”. In addition, the Kd in test [2] is 0.13 nM. In test [3], the IC50 is 9.5 nM. The “HRAS/KRAS (KD ratio)” value in test [4] is “A (a compound having 10 or more and less than 20 is denoted as A)”.
As to `CCO[C@@H]1C[C@H]2C(=O)N(C)C3(CCC3)C(=O)N(C)[C@@H](C3CCCC3)C(=O)N(C)[C@H](C(=O)N(C)C)CC(=O)N(C)[C@@H](CC(C)C)C(=O)N[C@@H]([C@@H](C)CC)C(=O)N(C)CC(=O)N(C)[C@H]3C/C=C\CCN(C3=O)[C@@H](Cc3ccc(C)cc3)C(=O)N(C)CC(=O)N[C@@H](CCc3cc(F)c(C(F)(F)F)c(F)c3)C(=O)N2C1` [PP1790], the “NRAS/KRAS (KD ratio)” value in test [1] was “A (a compound having 10 or more and less than 20 is denoted as A)”. In addition, in test [2], the Kd worked out at 0.03 nM. Also, the IC50 in test [3] is 1.7 nM. Moreover, in test [4], the “HRAS/KRAS (KD ratio)” value is “B (a compound having 3 or more and less than 10 is denoted as B)”.
`CCC[C@H]1C(=O)N[C@@H]([C@@H](C)CC)C(=O)N(C)CC(=O)N(C)[C@H]2C/C=C\CCN(C2=O)[C@@H](Cc2ccc(C)cc2)C(=O)N(C)CC(=O)N[C@@H](CCc2cc(F)c(C(F)(F)F)c(F)c2)C(=O)N2C[C@H](OCC)C[C@H]2C(=O)N(C)C2(CCC2)C(=O)N(C)[C@@H](C2CCCC2)C(=O)N(C)[C@H](C(=O)N(C)C)CC(=O)N1C` [PP1793]: the “NRAS/KRAS (KD ratio)” value in test [1] was “A (a compound having 10 or more and less than 20 is denoted as A)”. Further, the Kd in test [2] worked out at 0.023 nM. Further, the IC50 in test [3] is 2.4 nM. Besides, the “HRAS/KRAS (KD ratio)” value in test [4] was “B (a compound having 3 or more and less than 10 is denoted as B)”.
`CCO[C@@H]1C[C@H]2C(=O)N(C)C3(CCC3)C(=O)N(C)[C@@H](C3CCCC3)C(=O)N(C)[C@H](C(=O)N(C)C)CC(=O)N(C)[C@@H](CC3CC3)C(=O)N[C@@H]([C@@H](C)CC)C(=O)N3CCC[C@H]3C(=O)N(C)[C@H]3C/C=C\CCN(C3=O)[C@@H](Cc3ccc(C)cc3)C(=O)N(C)CC(=O)N[C@@H](CCc3cc(F)c(C(F)(F)F)c(F)c3)C(=O)N2C1` [PP1797]: the “NRAS/KRAS (KD ratio)” value in test [1] is “A (a compound having 10 or more and less than 20 is denoted as A)”. Moreover, the Kd in test [2] was 0.1 nM. Also, the IC50 in test [3] was found to be 5.1 nM. Besides, the “HRAS/KRAS (KD ratio)” value in test [4] is “A (a compound having 10 or more and less than 20 is denoted as A)”.
With `CC[C@H](C)[C@@H]1NC(=O)[C@H](CC2CC2)N(C)C(=O)C[C@@H](C(=O)N(C)C)N(C)C(=O)[C@H](C2CCCC2)N(C)C(=O)C2(CCC2)N(C)C(=O)[C@@H]2CCCN2C(=O)[C@H](CCc2cc(F)c(C(F)(F)F)c(F)c2)NC(=O)CN(C)C(=O)[C@H](Cc2ccc(C)cc2)N2CC/C=C\C[C@@H](C2=O)N(C)C(=O)[C@@H]2CCCN2C1=O` [PP1798], the “NRAS/KRAS (KD ratio)” value in test [1] is “A (a compound having 10 or more and less than 20 is denoted as A)”. Moreover, in test [2], the Kd was found to be 0.15 nM. Moreover, the IC50 in test [3] was 7.8 nM. The “HRAS/KRAS (KD ratio)” value in test [4] is “B (a compound having 3 or more and less than 10 is denoted as B)”.
As to `CCC[C@H]1C(=O)N[C@@H]([C@@H](C)CC)C(=O)N(C)CC(=O)N(C)[C@H]2C/C=C\CCN(C2=O)[C@@H](Cc2ccc(C)cc2)C(=O)N(C)CC(=O)N[C@@H](CCc2cc(F)c(C(F)(F)F)c(F)c2)C(=O)N2C[C@H](C)C[C@H]2C(=O)N(C)C2(CCC2)C(=O)N(C)[C@@H](C2CCCC2)C(=O)N(C)[C@H](C(=O)N(C)C)CC(=O)N1C` [PP1799], the “NRAS/KRAS (KD ratio)” value in test [1] was “B (a compound having 3 or more and less than 10 is denoted as B)”. Also, the Kd in test [2] stood at 0.068 nM. Besides, in test [3], the IC50 is 7.6 nM. Besides, the “HRAS/KRAS (KD ratio)” value in test [4] was “B (a compound having 3 or more and less than 10 is denoted as B)”.

The Kd is the equilibrium constant for the complex coming apart.
